Measured values published in patent publication US7579018B2, “Microbiological control in aqueous systems” (Albemarle Corporation, priority 2000, dated 2009).

Experiments:
[1] = “free chlorine” (Hach Method 8021) and “total chlorine” (Hach Method 8167) in dosed simulated cooling water, Example 1; type: physicochemical; details: for Free Cl2 / Total Cl2 / % hydrolysis to Free Cl2: simulated cooling water pH 9.1, 38° C.
Text: The standard tests for determination of “free chlorine” and “total chlorine” are based on classical test procedures devised by Palin in 1974. See A. T. Palin, “Analytical Control of Water Disinfection With Special Reference to Differential DPD Methods For Chlorine, Chlorine Dioxide, Bromine, Iodine and Ozone”, J. Inst. Water Eng., 1974, 28, 139. While there are various modernized versions of the Palin procedures, the version of the tests for “free chlorine” and “total chlorine” used and to be used as the standard in connection with this invention, are fully described in Hach Water Analysis Handbook, 3rd edition, copyright 1997. The procedure for “free chlorine” is identified in that publication as Method 8021 appearing on page 335, whereas the procedure for “total chlorine” is Method 8167 appearing at page 379. Briefly, the “free chlorine” test involves introducing to the halogenated water a powder comprising DPD indicator powder and a buffer. “Free chlorine” present in the water reacts with the DPD indicator to produce a red to pink coloration. The intensity of the coloration depends upon the concentration of “free chlorine” species present in the sample. This intensity is measured by a calorimeter calibrated to transform the intensity reading into a “free chlorine” value in terms of mg/L Cl2. Similarly, the “total chlorine” test also involves use of DPD indicator and buffer. In this case, KI is present with the DPD and buffer whereby the halogen species present, including nitrogen-combined halogen, reacts with KI to yield iodine species which turn the DPD indicator to red/pink. The intensity of this coloration depends upon the sum of the “free chlorine” species and all other halogen species present in the sample. Consequently, this coloration is transformed by the colorimeter into a “total chlorine” value expressed as mg/L Cl2.
DBDAH and BCDMH Test Procedure • 1. To determine the amount of species present in the water which respond to the “free chlorine” and “total chlorine” tests, the water sample should be analyzed within a few minutes of being taken, and preferably immediately upon being taken. • 2. Hach Method 8021 for testing the amount of species present in the water sample which respond to the “free chlorine” test involves use of the Hach Model DR 2010 calorimeter. The stored program number for chlorine determinations is recalled by keying in “80” on the keyboard, followed by setting the absorbance wavelength to 530 nm by rotating the dial on the side of the instrument. Two identical sample cells are filled to the 10 mL mark with the water under investigation. One of the cells is arbitrarily chosen to be the blank. Using the 10 mL cell riser, this is admitted to the sample compartment of the Hach Model DR 2010, and the shield is closed to prevent stray light effects. Then the ZERO key is depressed. After a few seconds, the display registers 0.00 mg/L Cl2. To second cell, the contents of a DPD Free Chlorine Powder Pillow are added. This is shaken for 10-20 seconds to mix, as the development of a pink-red color indicates the presence of species in the water which respond positively to the DPD test reagent. Within one minute of adding the DPD “free chlorine” reagent to the 10 mL of water in the sample cell, the blank cell used to zero the instrument is removed from the cell compartment of the Hach Model DR 2010 and replaced with the test sample to which the DPD “free chlorine” test reagent was added. The light shield is then closed as was done for the blank, and the READ key is depressed. The result, in mg/L Cl2 is shown on the display within a few seconds. This is the “free chlorine” level of the water sample under investigation. • 3. Hach Method 8167 for testing the amount of species present in the water sample which respond to the “total chlorine” test involves use of the Hach Model DR 2010 calorimeter. […]

heterotrophic bacteria = experiment: Cooling tower field trial, Example 2: heterotrophic bacteria plate counts; details: slug dose 3 times/week, 0.5 ppm free Cl2; cooling tower water
Text: The effectiveness of DBDMH and of BCDMH in microbiological control in cooling tower water was investigated in comparative tests. The cooling tower consisted of two 500-ton units in a crossflow design. The total system-contained volume was 14,000 gallons, and the tower contained medium efficiency film fill. Water from the tower cooled the coils of two 300-ton air conditioners (chillers). The tower typically operated at a pH of about 9.1 and 4 cycles of concentration. Blowdown was controlled by conductivity. Make-up water consisted of softened city water and which was of good quality. The make-up water was very low in calcium (<10 mg/L) but high in pH (8.7). The alkalinity was 145 mg/L (as CaCO3), and the silica level was 28 mg/L. The tower employed a conventional polyphosphate/molybdate/phosphonate program to provide corrosion and deposit control.
The BCDMH (20 lbs) was introduced to the water using 20-gram, 1-inch tablets charged to a solid halogen feeder (Neptune model BT-40, Neptune Chemical Pump Co., Inc., Lansdale, Pa.). Before each dose, the cooling tower water was sampled and enumerated for heterotrophic bacteria plate counts. Then the tower was slug dosed three times a week with BCDMH. Slug dosing was accomplished by diverting through the feeder containing the tablets a sidestream of the recirculating water for about 1 to 5 hours until a “free chlorine” dose of about 0.5 mg/L (as “free chlorine”) was obtained. The “total chlorine” dose was measured at the same time. After each dose the cooling water was sampled and enumerated for heterotrophic bacteria plate counts. As necessary, the feeder was replenished with more BCDMH tablets.
For example, before the biocide dose the bacteria levels in the bulk water ranged from 10^5 to 10^4 CFUs/mL. After the biocide dose the bacteria levels in the bulk water were reduced to 10^4 to 10^3.
After emptying the feeder of BCDMH tablets, 20 lbs of DBDMH granules was charged into the feeder. Thereupon the same procedure as described above for the BCDMH was carried out except for the fact that is was unnecessary to add any additional DBDMH to the feeder during the 30-day test period. In fact, the total weight of DBDMH consumed during the test was only 7 lbs.

[2] = dosed to 1 mg/L as total chlorine, Time 0 hr
[3] = Time 0.5 hr, percentage of Time 0 value
[4] = Time 1 hr, percentage of Time 0 value
[5] = Time 1.5 hr, percentage of Time 0 value
[6] = Time 2 hr, percentage of Time 0 value
[7] = Time 3 hr, percentage of Time 0 value
[8] = Time 4 hr, percentage of Time 0 value
[9] = Time 5 hr, percentage of Time 0 value
[10] = Time 6 hr, percentage of Time 0 value

CC1(C)C(=O)N(Br)C(=O)N1Br [DBDMH, 1,3-dibromo-5,5-dimethylhydantoin]
Free Cl2 [1, 2]: 98.8 | Total Cl2 [1, 2]: 100 | % hydrolysis to Free Cl2 ([1]; Time 0 hr): 98.8% | % hydrolysis to Free Cl2 ([1]; Time 0.5 hr): 95.6% | Free Cl2 [1, 3]: 100% | Total Cl2 [1, 3]: 104% | % hydrolysis to Free Cl2 ([1]; Time 1 hr): 97.3% | Free Cl2 [1, 4]: 85.1% | Total Cl2 [1, 4]: 87.3% | % hydrolysis to Free Cl2 ([1]; Time 1.5 hr): 100% | Free Cl2 [1, 5]: 87.3% | Total Cl2 [1, 5]: 87.3% | % hydrolysis to Free Cl2 ([1]; Time 2 hr): 97.2% | Free Cl2 [1, 6]: 81.6% | Total Cl2 [1, 6]: 83.9% | % hydrolysis to Free Cl2 ([1]; Time 3 hr): 93.8% | Free Cl2 [1, 7]: 70.1% | Total Cl2 [1, 7]: 74.7% | % hydrolysis to Free Cl2 ([1]; Time 4 hr): 93.8% | Free Cl2 [1, 8]: 65.5% | Total Cl2 [1, 8]: 66.6% | % hydrolysis to Free Cl2 ([1]; Time 5 hr): 96.4% | Free Cl2 [1, 9]: 60.1% | Total Cl2 [1, 9]: 63.2% | % hydrolysis to Free Cl2 ([1]; Time 6 hr): 96.3% | Free Cl2 [1, 10]: 59.8% | Total Cl2 [1, 10]: 62% | “total chlorine” level higher than the “free chlorine level” of the water ([1]; water of pH of at least 8 freshly treated): no more than 10% | Bacteria reduction (heterotrophic bacteria): 1.5-2 logs
